For 34 compounds, IC50 results are on record in patent publication US20070010671A1, “Novel quinazoline derivatives and methods of treatment related to the use thereof” (priority 2003, published 2007).

The target in the experiment is MCH receptor (Homo sapiens, UniProt Q99705). In words: High throughput functional screening FLIPR/FDSS6000: inhibition of MCH-evoked intracellular Ca2+ changes. It is filed as cell-based. Conditions: read-out: class. The procedure, abridged:
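Fluo4 fluorescence (Ex 488 nm, Em 530 nm) tracked MCH-evoked [Ca2+]i transients over 290 s by FLIPR or FDSS. Cells carried a constitutively active, non-endogenous receptor version. Compounds were added 3 min before a 50 nM MCH challenge.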

The mark [1] stands for this setting: class by percent of control at 10^−7 M or by IC50.
Where [2] appears, read: class by percent of control at 10^-7 M or by IC50.

Where two headings read alike, the source gives them in different places. A value given as a limit tells only on which side of the number the result lay.

In the case of `CN(C)c1nc(N[C@H]2CC[C@@H](C(=O)NCc3ccc(F)cc3Cl)CC2)nc2ccccc12` [Example 1182, cis-N-(2-chloro-4-fluorobenzyl)-4-{[4-(dimethylamino)quinazolin-2-yl]amino}cyclohexanecarboxamide], the IC50 under setting [1] was less than 50 nM.
The same measure, in the same setting: with `CN(C)c1nc(N[C@H]2CC[C@@H](C(=O)NCc3cc(C(F)(F)F)ccc3Cl)CC2)nc2ccccc12` [Example 1183, cis-N-[2-chloro-5-(trifluoromethyl)benzyl]-4-{[4-(dimethylamino)quinazolin-2-yl]amino}cyclohexanecarboxamide] the figure was less than 50 nM; with `CN(C)c1nc(N[C@H]2CC[C@@H](C(=O)NCc3ccccc3OC(F)F)CC2)nc2ccccc12` [Example 1184, cis-N-[2-(difluoromethoxy)benzyl]-4-{[4-(dimethylamino)quinazolin-2-yl]amino}cyclohexanecarboxamide], less than 50 nM.
Still for that read-out and setting: the same measure for `CN(C)c1nc(N[C@H]2CC[C@@H](C(=O)NCc3cccc(OC(F)F)c3)CC2)nc2ccccc12` [Example 1185, cis-N-[3-(difluoromethoxy)benzyl]-4-{[4-(dimethylamino)quinazolin-2-yl]amino}cyclohexanecarboxamide]: less than 50 nM; for `CN(C)c1nc(N[C@H]2CC[C@@H](C(=O)NCc3cccc(OC(F)(F)F)c3)CC2)nc2ccccc12` [Example 1186, cis-4-{[4-(dimethylamino)quinazolin-2-yl)amino}-N-[3-(trifluoromethoxy)benzyl]cyclohexanecarboxamide]: less than 50 nM; for `Cc1cc(Cl)cc(Cl)c1CNC(=O)[C@H]1CC[C@@H](Nc2nc(N(C)C)c3ccccc3n2)CC1` [Example 1187, cis-N-(2,4-dichloro-6-methylbenzyl)-4-{[4-(dimethylamino)quinazolin-2-yl]amino}cyclohexanecarboxamide]: 50 to 200 nM.
On the same count and under the same terms, the same measure for `COc1cccc(OC)c1CNC(=O)[C@H]1CC[C@@H](Nc2nc(N(C)C)c3ccccc3n2)CC1` [Example 1188, cis-N-(2,6-dimethoxybenzyl)-4-{[4-(dimethylamino)quinazolin-2-yl]amino}cyclohexanecarboxamide]: less than 50 nM; for `C[C@@H](NC(=O)[C@H]1CC[C@@H](Nc2nc(N(C)C)c3ccccc3n2)CC1)c1ccccc1` [Example 1189, cis-4-{[4-(dimethylamino)quinazolin-2-yl]amino}-N-[(1R)-1-phenylethyl]cyclohexanecarboxamide]: less than 50 nM; for `COc1ccc([C@H](C)NC(=O)[C@H]2CC[C@@H](Nc3nc(N(C)C)c4ccccc4n3)CC2)cc1` [Example 1190, cis-4-{[4-(dimethylamino)quinazolin-2-yl]amino}-N-[(1S)-1-(4-methoxyphenyl)ethyl]cyclohexanecarboxamide]: less than 50 nM.
For the compound `COc1ccc(C(NC(=O)[C@H]2CC[C@@H](Nc3nc(N(C)C)c4ccccc4n3)CC2)c2ccc(OC)cc2)cc1` [Example 1192, cis-N-[bis(4-methoxyphenyl)methyl]-4-{[4-(dimethylamino)quinazolin-2-yl]amino}cyclohexanecarboxamide], under setting [1], the IC50 was less than 50 nM.
Still for that read-out and setting: with `CN(C)c1nc(N[C@H]2CC[C@@H](C(=O)NCc3ccccc3C(F)(F)F)CC2)nc2ccccc12` [Example 1193, cis-4-{[4-(dimethylamino)quinazolin-2-yl]amino}-N-[2-(trifluoromethyl)benzyl]cyclohexanecarboxamide] the figure was less than 50 nM; with `CN(C)c1nc(N[C@H]2CC[C@@H](C(=O)NC3c4ccccc4-c4ccccc43)CC2)nc2ccccc12` [Example 1194, cis-4-{[4-(dimethylamino)quinazolin-2-yl]amino}-N-9H-fluoren-9-ylcyclohexanecarboxamide], less than 50 nM; with `CN(C)c1nc(N[C@H]2CC[C@@H](C(=O)NCc3ccc(S(C)(=O)=O)cc3)CC2)nc2ccccc12` [Example 1195, cis-4-{[4-(dimethylamino)quinazolin-2-yl]amino}-N-[4-(methylsulfonyl)benzyl]cyclohexanecarboxamide], less than 50 nM.
The same measure, in the same setting: with `CN(C)c1nc(N[C@H]2CC[C@@H](C(=O)Nc3ccc(Cl)nc3)CC2)nc2ccccc12` [Example 1196, cis-N-(6-chloropyridin-3-yl)-4-{[4-(dimethylamino)quinazolin-2-yl]amino}cyclohexanecarboxamide] the figure was less than 50 nM; with `CN(C)c1nc(N[C@H]2CC[C@@H](C(=O)Nc3cccnc3Cl)CC2)nc2ccccc12` [Example 1197, cis-N-(2-chloropyridin-3-yl)-4-{[4-(dimethylamino)quinazolin-2-yl]amino}cyclohexanecarboxamide], greater than 200 nM; with `CN(C)c1nc(N[C@H]2CC[C@@H](C(=O)Nc3nc4ccccc4[nH]3)CC2)nc2ccccc12` [Example 1198, cis-N-1H-benzimidazol-2-yl-4-{[4-(dimethylamino)quinazolin-2-yl]amino}cyclohexanecarboxamide], greater than 200 nM.
As for `CN(C)c1nc(N[C@H]2CC[C@@H](C(=O)Nc3nc(C(C)(C)C)c(Br)s3)CC2)nc2ccccc12` [Example 1199, cis-N-(5-bromo-4-tert-butyl-1,3-thiazol-2-yl)-4-{[4(dimethylamino)quinazolin-2-yl]amino}cyclohexanecarboxamide], the IC50 under setting [1] is greater than 200 nM.
The same measure, in the same setting: the same measure for `CCC(=O)Nc1cccc(C(=O)N[C@H]2CC[C@@H](Nc3nc(N(C)C)c4ccccc4n3)CC2)c1` [Example 1200, N-(cis-4-{[4-(dimethylamino)quinazolin-2-yl]amino}cyclohexyl)-3-(propionylamino)benzamide]: less than 50 nM; for `CC(C)CC(=O)Nc1cccc(C(=O)N[C@H]2CC[C@@H](Nc3nc(N(C)C)c4ccccc4n3)CC2)c1` [Example 1201, N-(cis-4-{[4-(dimethylamino)quinazolin-2-yl]amino}cyclohexyl)-3-[(3-methylbutanoyl)amino]benzamide]: 50 to 200 nM; for `CN(C)c1nc(N[C@H]2CC[C@@H](NC(=O)c3cccc(NC(=O)C(C)(C)C)c3)CC2)nc2ccccc12` [Example 1202, N-(cis-4-{(4-(dimethylamino)quinazolin-2-yl]amino}cyclohexyl)-3-[(2,2-dimethylpropanoyl)amino]benzamide]: 50 to 200 nM.
As to `CN(C)c1nc(N[C@H]2CC[C@@H](NC(=O)c3cccc(NC(=O)C4CCCC4)c3)CC2)nc2ccccc12` [Example 1203, 3-[(cyclopentylcarbonyl)amino]-N-(cis-4-{[4-(dimethylamino)quinazolin-2-yl]amino}cyclohexyl)benzamide], the IC50 under setting [1] is less than 50 nM.
The same measure, in the same setting: with `CC(=O)Nc1cccc(C(=O)N[C@H]2CC[C@@H](Nc3nc(N(C)C)c4ccccc4n3)CC2)c1` [Example 1204, 3-(acetylamino)-N-(cis-4-{[4-(dimethylamino)quinazolin-2-yl]amino}cyclohexyl)benzamide] the figure was less than 50 nM; with `CN(C)c1nc(N[C@H]2CC[C@@H](NC(=O)c3ccccc3)CC2)nc2cc(F)c(F)cc12` [Example 1205, N-(cis-4-{[4-(dimethylamino)-6,7-difluoroquinazolin-2-yl]amino}cyclohexyl)benzamide], less than 50 nM.
Still for that read-out and setting: the same measure for `Cc1ccc(C(=O)N[C@H]2CC[C@@H](Nc3nc(N(C)C)c4cc(F)c(F)cc4n3)CC2)cc1` [Example 1206, N-(cis-4-{[4-(dimethylamino)-6,7-difluoroquinazolin-2-yl]amino}cyclohexyl)-4-methylbenzamide]: less than 50 nM.
The same measure, in the same setting: with `CN(C)c1nc(N[C@H]2CC[C@@H](NC(=O)c3ccc(F)cc3)CC2)nc2cc(F)c(F)cc12` [Example 1207, N-(cis-4-{[4-(dimethylamino)-6,7-difluoroquinazolin-2-yl]amino}cyclohexyl)-4-fluorobenzamide] the figure was less than 50 nM; with `COc1cccc(C(=O)N[C@H]2CC[C@@H](Nc3nc(N(C)C)c4cc(F)c(F)cc4n3)CC2)c1` [Example 1208, N-(cis-4-{[4-(dimethylamino)-6,7-difluoroquinazolin-2-yl]amino}cyclohexyl)-3-methoxybenzamide], less than 50 nM; with `CN(C)c1nc(N[C@H]2CC[C@@H](NC(=O)c3ccc(F)c(F)c3)CC2)nc2cc(F)c(F)cc12` [Example 1209, N-(cis-4-{[4-(dimethylamino)-6,7-difluoroquinazolin-2-yl]amino}cyclohexyl)-3,4-difluorobenzamide], less than 50 nM.
Take `CN(C)c1nc(N[C@H]2CC[C@@H](NC(=O)c3cccc(C(F)(F)F)c3)CC2)nc2cc(F)c(F)cc12` [Example 1210, N-(cis-4-{[4-(dimethylamino)-6,7-difluoroquinazolin-2-yl]amino}cyclohexyl)-3-(trifluoromethyl)benzamide]: under setting [1], the IC50 is less than 50 nM.
As for `CN(C)c1nc(N[C@H]2CC[C@@H](NC(=O)c3ccc(OC(F)(F)F)cc3)CC2)nc2cc(F)c(F)cc12` [Example 1211, N-(cis-4-{[4-(dimethylamino)-6,7-difluoroquinazolin-2-yl]amino}cyclohexyl)-4-(trifluoromethoxy)benzamide], the IC50 under setting [1] was greater than 200 nM.
Consider `CC(=O)c1cccc(NC(=O)N[C@H]2CC[C@@H](Nc3nc(N(C)C)c4ccccc4n3)CC2)c1` [compound 4], for which the IC50 under setting [2] was greater than 200 nM.
Still for that read-out and setting: the same measure for `CC(=O)c1ccc(NC(=O)N[C@H]2CC[C@@H](Nc3nc(N(C)C)c4ccccc4n3)CC2)cc1` [compound 6]: greater than 200 nM; for `CN(C)c1nc(N[C@H]2CC[C@@H](NC(=O)NC(=O)c3ccccc3)CC2)nc2ccccc12` [compound 7]: greater than 200 nM; for `CN(C)c1nc(N[C@H]2CC[C@@H](NC(=O)Nc3cc(C(F)(F)F)cc(C(F)(F)F)c3)CC2)nc2ccccc12` [compound 8]: greater than 200 nM.
Take `CN(C)c1nc(N[C@H]2CC[C@@H](NC(=O)NCc3ccccc3)CC2)nc2ccccc12` [compound 9, N-benzyl-N′-(cis-4-{[4-(dimethylamino)quinazolin-2-yl]amino}cyclohexyl)urea]: the IC50 under setting [2] lay in the range of 50 to 200 nM.
